Data as given in US6548041B1, “Dopamine transporter imaging agents” (Organix, Inc., priority 1999, dated 2003).

Columns and labels:
DAT sites in striatum [1] = target: T1, DAT sites in striatum (Macaca mulatta, UniProt Q7JHP9); test: SPECT of MPTP treated monkeys (animal model of Parkinson's disease); type: in vivo, rhesus monkey; settings: one month after MPTP treatment
T1 construct: from tissue; host or cells: brain (striatum) of living rhesus monkeys, imaged in vivo
Source text: The neurotoxin MPTP ([…]), when administered to monkeys, produces a spectrum of motor, cognitive, biochemical and morphological changes that is not replicated in rodents. MPTP-treated monkeys develop neurological deficits (resting tremor, rigidity, akinesia, postural abnormalities), morphological changes (cell loss in the substantia nigra, ventral tegmental area, retrorubal fields) and biochemical changes (severe depletion of DA and decreases in norepinephrine and serotonin) that closely, parallel idiopathic PD and post-encephalitic Parkinsonism.
Two monkeys were treated with MPTP; 3-5 doses of 0.6 mg/kg administered over 10 days. Treatment was performed under ketamine anesthesia (15 mg/kg). This dose of MPTP, has previously been used to produce Parkinsonism within 2-3 weeks and depletion of ^3H or ^11C. CFT binding sites by one month. Animals treated in this manner were expected to show an inverse relationship between SPECT tracer binding and motor dysfunction. […]
SPECT slices with greatest striatal activity or in which the occipital cortex was well visualized were summed and regions of interest (ROI's) were constructed. […] Radioactivity in the right and left striatum were averaged. […] The difference between striatal and occipital cortex activity (specific binding) was calculated for each image and was plotted as a function of time. […]

DAT sites = target: T2, DAT sites (Macaca mulatta, UniProt Q7JHP9); test: Selectivity for DAT sites in the monkey brain (displacement by unlabeled CFT); type: in vivo
T2 construct: from tissue; host or cells: brain (striatum) of living rhesus monkeys, imaged in vivo
T2 sequence (Q7JHP9 1-620): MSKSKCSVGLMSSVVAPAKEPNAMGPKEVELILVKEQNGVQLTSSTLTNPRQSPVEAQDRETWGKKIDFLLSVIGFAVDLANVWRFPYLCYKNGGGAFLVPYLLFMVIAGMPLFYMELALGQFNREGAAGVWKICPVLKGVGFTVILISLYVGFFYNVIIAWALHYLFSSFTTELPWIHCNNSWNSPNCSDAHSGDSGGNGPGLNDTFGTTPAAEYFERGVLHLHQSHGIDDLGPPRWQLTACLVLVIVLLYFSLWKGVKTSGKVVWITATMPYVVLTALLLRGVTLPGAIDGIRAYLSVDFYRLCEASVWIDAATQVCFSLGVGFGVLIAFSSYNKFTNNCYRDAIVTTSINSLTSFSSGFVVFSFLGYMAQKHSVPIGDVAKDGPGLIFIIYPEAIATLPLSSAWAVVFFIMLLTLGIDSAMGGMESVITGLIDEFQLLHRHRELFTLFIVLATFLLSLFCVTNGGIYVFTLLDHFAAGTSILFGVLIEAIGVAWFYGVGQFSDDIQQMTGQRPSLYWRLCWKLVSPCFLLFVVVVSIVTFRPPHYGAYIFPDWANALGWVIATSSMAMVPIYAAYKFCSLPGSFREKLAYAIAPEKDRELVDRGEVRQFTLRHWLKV
Method: For this study, a monkey was positioned supine on the imaging table of the MultiSPECT 2 gamma camera and injected with ˜20 mCi of ^99mTc O-1560T as described above. At approximately 20 min. after radiopharmaceutical administration, the animal was injected with CFT (1.0 mg/kg) and imaging was continued for an additional 70 min.
(§1) SPECT slices with greatest striatal activity or in which the occipital cortex was well visualized were summed and regions of interest (ROI's) were constructed. In the striatal planes, ROI's were placed on the right and left striatum (caudate+putamen). Radioactivity in the right and left striatum were averaged. ROI radioactivities (cpm/cc) were decay corrected to the time of injection. The difference between striatal and occipital cortex activity (specific binding) was calculated for each image and was plotted as a function of time. Corrections for scattered fraction and partial volume effects were not performed.

DAT sites in striatum [2] = target: T1, DAT sites in striatum; test: SPECT imaging of monkey brain with 99mTc labeled tracers; type: in vivo, Rhesus monkeys
Method: (§2) All SPECT images were acquired with a MultiSPECT 2 gamma camera (Siemens, Hoffman Estates, Ill.) equipped with fan-beam collimators and peaked to the 140 KeV photopeak of ^99mTc (15% window). This camera has intrinsic resolution of 4.6 mm (FWHM), and a sensitivity of ˜240 cps/mCi. Images were acquired over 360° (60 projections/head, 128×128 matrix) in the continuous mode. Image reconstruction was performed using a conventional filtered back-projection algorithm to an in-plane resolution of 10 mm FWHM and attenuation correction via the Chang method.
(§3) Rhesus monkeys weighing approximately 7 kg were anesthetized with ketamine/xylazine (15.0 and 1.5 mg/kg) and positioned prone on the imaging bed of the SPECT camera. Before the start of imaging, a venous catheter was inserted in a peripheral vein for radiopharmaceutical administration. The heads of the animals were immobilized with a custom fabricated head holder. Approximately 20-25 mCi of ^99mTc labeled O-1505T, O-1508T, O-1561T or O-1560T was injected intravenously over 60 seconds. Dynamic SPECT imaging was initiated at the end of the infusion and consisted of 2 min. acquisitions during the first hour and 5 min. acquisitions thereafter.
as §1

DAT sites in striatum [3] = test: as above; type: in vivo, Rhesus monkeys; settings: SPECT images
Method: as §2, §3, §1

[4] = Biodistribution and radiation dosimetry (MIRdose); type: in vivo, Sprague-Dawley rats
Method: Groups of male Sprague-Dawley rats were in injected with ˜10 mCi of ^99mTc labeled O-1505T and O-1561T. At time intervals between 5 min. and 24 hrs after injection, groups of 6 animals injected with each radiopharmaceutical were sacrificed and biodistribution was measured. Samples of blood, heart, lung, liver, spleen, kidney, adrenal, stomach, GI tract, testes, bone, bone marrow and skeletal muscle were weighed and radioactivity was measured with a well type gamma counter (LKB model #1282, Wallac Oy, Finland). To correct for radioactive decay and permit calculation of the concentration of radioactivity in each organ as a fraction of the administered dose, aliquots of the injected doses were counted simultaneously. The results were expressed as percent injected dose per gram (%I.D./g) and radiation dosimetry was estimated by the MIRdose method.

T1 sequence (Q7JHP9 1-620): as above

CCC(=O)C1C(c2ccc(F)cc2)CC2CCC1N2CCCN1CC[S][99Tc]2(=[O])[S]CC[N]2C(=O)C1 (stereo not drawn) [Compound O-1505T, N-[(2-((3′-N′-Propyl-(1″R)-2″β-1-propanoyl-3″α-(4-fluorophenyl)-tropane)-(2-mercaptoethyl)amino)acetyl)-2-aminoethanethiolato]technetium (V) Oxide]
striatal accumulation after MPTP treatment compared with normal animals (DAT sites in striatum [1]): the level of accumulation decreased markedly and the striatum could not be differentiated from surrounding structures
striatal accumulation after a receptor saturating dose of unlabeled CFT (DAT sites; CFT 1.0 mg/kg at about 20 min, by 60 minutes after injection): no evidence of focal accumulation in the striatum
accumulation in the striatum (SPECT images) (DAT sites; before injection of CFT): significant accumulation
time after injection to excellent contrast between striatum and the rest of the brain (DAT sites; before the effect of CFT): ≤ 30 min
time after injection to excellent contrast between striatum and the rest of the brain (DAT sites in striatum [2]; i.v., normal monkeys): ≤ 30 min
accumulation of radioactivity in striatum vs other areas of the brain (SPECT images) (DAT sites in striatum [2]; images acquired between 30 and 50 minutes after injection): high concentrations of radiopharmaceutical in the striatum with minimal accumulation in other areas of the brain
striatal to occipital cortex ratio (DAT sites in striatum [2]; region of interest analysis, SPECT images 30-50 minutes after i.v. injection of 20-25 mCi): ~2.5
accumulation in thalamus, hypothalamus or midbrain (regions rich in 5-HT transporters) (DAT sites in striatum [3]): lack of accumulation
radiation dose to target organ (urinary bladder) ([4]; MIRdose calculations from rat biodistribution): 0.29 rem/mCi
total body effective dose ([4]; MIRdose estimate from rat biodistribution): 0.037 rem/mCi
clearance from tissues (biodistribution) ([4]; rat, 5 min to 24 hrs after injection): cleared rapidly from all tissues of the rat
